From patent US20220411419A1, “SMALL MOLECULE MODULATORS OF MHC-I” (RetroVirox, Inc., priority 2018, published 2022) come the findings set out here.

Bounds are passed on as bounds.

Data set [1] has as its system downmodulation of MHC-I molecules expressed on the surface of HIV infected SupT1 cells. Put plainly: cells. As to conditions: for EC50: Human immunodeficiency virus 1, SUP-T1, read-out: EC50 for inhibition of MHC-I downmodulation utilizing the R1 parameter; for activity at 100 µM: Human immunodeficiency virus 1, SUP-T1, read-out: R1 @ 100 μM (R1 value for MHC-I downmodulation as % of the vehicle control).

The nature of another data set: in vitro. Conditions: human, uninfected SupT1 cells.

In general, EC50 refers to the midpoint of the concentration-response curve. In general, CC50 refers to the concentration giving 50% cytotoxicity. Turning to `COc1cccc(OC)c1OCC(=O)N(C)c1nc2c(s1)CCCC2` [Compound 131, 2-(2,6-Dimethoxyphenoxy)-N-methyl-N-(4,5,6,7-tetrahydrobenzo[d]thiazol-2-yl)acetamide], in data set [1], the EC50 turned out to be 2.6 µM. In “in vitro”, this compound came in with a CC50 at 48 h of about 125 µM.
Take `Cc1csc(N(C(=O)COc2cccc3c2OC(C)(C)C3)c2cnccn2)n1` [Compound 90]: in data set [1], the EC50 was over 25 µM and the activity at 100 µM turned out to be 31%. In the data set “in vitro”, this compound returned a CC50 of over 100 µM and a CC50 at 48 h of over 100 µM.
On to `CN(C(=O)COc1ccccc1OC(F)(F)F)c1nc2c(s1)CCCC2` [Compound 161, N-Methyl-N-(4,5,6,7-tetrahydrobenzo[d]thiazol-2-yl)-2-(2-(trifluoromethoxy)phenoxy)acetamide], for which the EC50 in data set [1] came to 0.15 µM. In addition, in the data set “in vitro”, the CC50 at 48 h was over 125 µM.
`C=CCN(C(=O)COc1cccc2c1OC(C)(C)C2)c1nc(C)cs1` [Compound 63, N-Allyl-2-((2,2-dimethyl-2,3-dihydrobenzofuran-7-yl)oxy)-N-(4-methylthiazol-2-yl)acetamide]: the EC50 in data set [1] came to 0.19 µM. The CC50 at 48 h in “in vitro” is over 100 µM.
Taken in the same sequence, the figures for `Cc1ncccc1OCC(=O)N(C)c1nc2c(s1)CCCC2` [Compound 137, N-Methyl-2-((2-methylpyridin-3-yl)oxy)-N-(4,5,6,7-tetrahydrobenzo[d]thiazol-2-yl)acetamide] were over 25 µM and 12 µM.
As for `CC1(C)Cc2cccc(CCC(=O)N(Cc3ccccn3)c3nc4c(s3)CCCC4)c2O1` [Compound 104, 3-(2,2-Dimethyl-2,3-dihydrobenzofuran-7-yl)-N-(pyridin-2-ylmethyl)-N-(4,5,6,7-tetrahydrobenzo[d]thiazol-2-yl)propanamide], the EC50 in data set [1] turned out to be 1.1 µM. Also, the 50% cytotoxic concentration (CC50) at 48 h in “in vitro” is over 125 µM.
In the case of `Cc1csc(N(C(=O)COc2cccc3c2OC(C)(C)C3)c2ccncn2)n1` [Compound 96, 2-((2,2-Dimethyl-2,3-dihydrobenzofuran-7-yl)oxy)-N-(4-methylthiazol-2-yl)-N-(pyrimidin-4-yl)acetamide], in data set [1], the EC50 is over 25 µM and the activity at 100 µM stood at 32%. Also, in “in vitro”, the CC50 is over 125 µM and the CC50 at 48 h was over 125 µM.
On to `Cc1csc(NC(=O)COc2ccccc2OCc2ccccc2)n1` [Compound 141, 2-(2-(Benzyloxy)phenoxy)-N-(4-methylthiazol-2-yl)acetamide], for which the concentration giving a half-maximal response (EC50) in data set [1] stood at 1.84 µM. Moreover, the CC50 at 48 h in “in vitro” is over 100 µM.
As to `C=C(C)c1ccc(NC(=O)COc2cccc3c2OC(C)(C)C3)nc1` [Compound 69, 2-((2,2-Dimethyl-2,3-dihydrobenzofuran-7-yl)oxy)-N-(5-(prop-1-en-2-yl)pyridin-2-yl)acetamide], the EC50 in data set [1] stood at 5 µM. In “in vitro”, this compound returned a CC50 at 48 h of over 125 µM.
Taken in the same sequence, the figures for `CC1(C)Cc2cccc(OCC(=O)N(Cc3ccccc3)c3nc4c(s3)CCCC4)c2O1` [Compound 37, N-Benzyl-2-((2,2-dimethyl-2,3-dihydrobenzofuran-7-yl)oxy)-N-(4,5,6,7-tetrahydrobenzo[d]thiazol-2-yl)acetamide] were 0.002 µM and 0.15 µM.
With `COC(=O)CN(C(=O)COc1cccc2c1OC(C)(C)C2)c1nc2c(s1)CCCC2` [Compound 99, Methyl 2-(2-((2,2-dimethyl-2,3-dihydrobenzofuran-7-yl)oxy)-N-(4,5,6,7-tetrahydrobenzo[d]thiazol-2-yl)acetamido)acetate], the 50% effective concentration (EC50) in data set [1] was 22 µM. In addition, the CC50 at 48 h in “in vitro” is over 125 µM.
Turning to `CC1(C)Cc2cccc(CCC(=O)Nc3nc4c(s3)CCCC4)c2O1` [Compound 105, 3-(2,2-Dimethyl-2,3-dihydrobenzofuran-7-yl)-N-(4,5,6,7-tetrahydrobenzo[d]thiazol-2-yl)propanamide], the EC50 in data set [1] worked out at 0.39 µM. The compound further registered a CC50 at 48 h in the data set “in vitro” of over 125 µM.
Consider `Cc1nc(NC(=O)COc2cccc3c2OC(C)(C)C3)ccc1Br` [Compound 72, N-(5-Bromo-6-methylpyridin-2-yl)-2-((2,2-dimethyl-2,3-dihydrobenzofuran-7-yl)oxy)acetamide], for which the half-maximal effective concentration (EC50) in data set [1] turned out to be 1.4 µM. Further, the half-maximal cytotoxic concentration (CC50) at 48 h in “in vitro” was over 100 µM.
The matching figures for `Cc1ccc(N(C(=O)COc2cccc3c2OC(C)(C)C3)c2nc(C)cs2)cc1` [Compound 64, 2-((2,2-Dimethyl-2,3-dihydrobenzofuran-7-yl)oxy)-N-(4-methylthiazol-2-yl)-N-(p-tolyl)acetamide]: 0.57 µM and over 100 µM.
For `CC1(C)Cc2cccc(OCC(=O)N(Cc3ccc[nH]3)c3nc4c(s3)CCCC4)c2O1` [Compound 51, N-((1H-Pyrrol-2-yl)methyl)-2-((2,2-dimethyl-2,3-dihydrobenzofuran-7-yl)oxy)-N-(4,5,6,7-tetrahydrobenzo[d]thiazol-2-yl)acetamide], in data set [1], the half-maximal effective concentration (EC50) stood at 0.015 µM. Further, the CC50 at 48 h in “in vitro” was over 125 µM.
Taken in the same sequence, the figures for `CCOc1ccccc1OCC(=O)N(C)c1nc2c(s1)CCCC2` [Compound 112, 2-(2-Ethoxyphenoxy)-N-methyl-N-(4,5,6,7-tetrahydrobenzo[d]thiazol-2-yl) acetamide] were 0.22 µM and over 125 µM.
In the case of `COc1ccccc1OCC(=O)N(C)c1nc2c(s1)CCCC2` [Compound 130, 2-(2-Methoxyphenoxy)-N-methyl-N-(4,5,6,7-tetrahydrobenzo[d]thiazol-2-yl) acetamide], in data set [1], the EC50 worked out at 0.38 µM. The compound further showed a cytotoxic concentration (CC50) at 48 h in “in vitro” of over 125 µM.
For the compound `CN(C(=O)COc1ccccc1C(F)(F)F)c1nc2c(s1)CCCC2` [Compound 160, N-Methyl-N-(4,5,6,7-tetrahydrobenzo[d]thiazol-2-yl)-2-(2-(trifluoromethyl)phenoxy)acetamide], in data set [1], the concentration for a half-maximal effect (EC50) stood at 0.28 µM. For the same compound, the CC50 at 48 h in the data set “in vitro” is over 125 µM.
The matching figures for `CC1(C)Cc2cccc(OCC(=O)Nc3ccc4ccccc4n3)c2O1` [Compound 16, 2-((2,2-Dimethyl-2,3-dihydrobenzofuran-7-yl)oxy)-N-(quinolin-2-yl) acetamide]: 10 µM and over 90 µM.
As for `COc1c(C)cccc1OCC(=O)N(C)c1nc2c(s1)CCCC2` [Compound 119, 2-(2-Methoxy-3-methylphenoxy)-N-methyl-N-(4,5,6,7-tetrahydrobenzo[d]thiazol-2-yl)acetamide], in data set [1], the concentration giving a half-maximal response (EC50) worked out at 0.78 µM. The same compound showed a half-maximal cytotoxic concentration (CC50) at 48 h in “in vitro” of over 125 µM.
As to `Cc1ccc(NC(=O)COc2cccc3c2OC(C)(C)C3)nc1` [Compound 177, 2-((2,2-Dimethyl-2,3-dihydrobenzofuran-7-yl)oxy)-N-(5-methylpyridin-2-yl) acetamide], the EC50 in data set [1] was 0.24 µM. In the data set “in vitro”, this compound displayed a cytotoxic concentration (CC50) at 48 h of over 100 µM.
Turning to `CC1(C)Cc2cccc(OCC(=O)Nc3nc4c(s3)CCCC4)c2O1` [Compound 195, 2-((2,2-Dimethyl-2,3-dihydrobenzofuran-7-yl)oxy)-N-(4,5,6,7-tetrahydrobenzo[d]thiazol-2-yl)acetamide], the EC50 in data set [1] turned out to be 0.053 µM. In “in vitro”, the CC50 at 48 h is over 125 µM.
Taken in the same sequence, the figures for `Cc1nc(NC(=O)COc2cccc3c2OC(C)(C)C3)sc1C` [Compound 185, 2-((2,2-Dimethyl-2,3-dihydrobenzofuran-7-yl)oxy)-N-(4,5-dimethylthiazol-2-yl)acetamide] were 0.2 µM and over 90 µM.
Turning to `Cc1csc(N(C(=O)COc2cccc3c2OC(C)(C)C3)c2ccccc2C)n1` [Compound 60, 2-((2,2-Dimethyl-2,3-dihydrobenzofuran-7-yl)oxy)-N-(4-methylthiazol-2-yl)-N-(o-tolyl)acetamide], in data set [1], the EC50 is 3.8 µM. For the same compound, the half-maximal cytotoxic concentration (CC50) at 48 h in the data set “in vitro” was over 100 µM.
As to `Cc1csc(N(Cc2ccccc2)C(=O)COc2cccc3c2OC(C)(C)C3)n1` [Compound 159, N-Benzyl-2-((2,2-dimethyl-2,3-dihydrobenzofuran-7-yl)oxy)-N-(4-methylthiazol-2-yl)acetamide], in data set [1], the half-maximal effective concentration (EC50) came out at 0.18 µM. Moreover, the 50% cytotoxic concentration (CC50) at 48 h in the data set “in vitro” was over 90 µM.
As for `CC1(C)Cc2cccc(OCC(=O)Nc3ccc(C(F)(F)F)nc3)c2O1` [Compound 12, 2-((2,2-Dimethyl-2,3-dihydrobenzofuran-7-yl)oxy)-N-(6-(trifluoromethyl)pyridin-3-yl)acetamide], in data set [1], the concentration for a half-maximal effect (EC50) is over 25 µM and the activity at 100 µM is 51%. For the same compound, in the data set “in vitro”, the half-maximal cytotoxic concentration (CC50) was over 100 µM and the 50% cytotoxic concentration (CC50) at 48 h was over 100 µM.
Regarding `Cc1cccc(NC(=O)COc2cccc3c2OC(C)(C)C3)n1` [Compound 8, 2-((2,2-Dimethyl-2,3-dihydrobenzofuran-7-yl)oxy)-N-(6-methylpyridin-2-yl) acetamide], the concentration giving a half-maximal response (EC50) in data set [1] was 23 µM. In addition, in “in vitro”, the 50% cytotoxic concentration (CC50) at 48 h was over 100 µM.
Consider `CC(C)c1ccc(NC(=O)COc2cccc3c2OC(C)(C)C3)nc1` [Compound 70, 2-((2,2-Dimethyl-2,3-dihydrobenzofuran-7-yl)oxy)-N-(5-isopropylpyridin-2-yl)acetamide], for which, in data set [1], the EC50 is 0.89 µM. In “in vitro”, this compound displayed a CC50 at 48 h of over 125 µM.
In the case of `CCc1ccc(N(C)C(=O)COc2cccc3c2OC(C)(C)C3)nn1` [Compound 83, 2-((2,2-Dimethyl-2,3-dihydrobenzofuran-7-yl)oxy)-N-(6-ethylpyridazin-3-yl)-N-methylacetamide], in data set [1], the EC50 turned out to be 13 µM. The same compound gave a cytotoxic concentration (CC50) at 48 h in the data set “in vitro” of over 125 µM.
On to `Cc1ccc(NC(=O)COc2cccc3c2OC(C)(C)C3)nn1` [Compound 2, 2-((2,2-Dimethyl-2,3-dihydrobenzofuran-7-yl)oxy)-N-(6-methylpyridazin-3-yl)acetamide], for which the half-maximal effective concentration (EC50) in data set [1] came to 2.1 µM. In “in vitro”, this compound registered a CC50 at 48 h of over 90 µM.
Consider `CC1(C)Cc2cccc(OCC(=O)Nc3nc4c(F)c(F)ccc4s3)c2O1` [Compound 6, N-(4,5-Difluorobenzo[d]thiazol-2-yl)-2-((2,2-dimethyl-2,3-dihydrobenzofuran-7-yl)oxy)acetamide], for which the concentration giving a half-maximal response (EC50) in data set [1] amounted to 6.3 µM. Also, the CC50 at 48 h in “in vitro” was 36 µM.
Taken in the same sequence, the figures for `C=Cc1ccc(NC(=O)COc2cccc3c2OC(C)(C)C3)nc1C` [Compound 74, 2-((2,2-Dimethyl-2,3-dihydrobenzofuran-7-yl)oxy)-N-(6-methyl-5-vinylpyridin-2-yl)acetamide] were 1.3 µM and over 125 µM.
